# Source: patent US11667658B2, “Chemical synthesis of the organoarsenical antibiotic arsinothricin” (The Florida International University Board of Trustees, priority 2021, dated 2023)
# System: PpArsN1, the AST-selective N-acetyltransferase
# Test: Enzymatic N-acetylation of AST by PpArsN1 (HPLC-ICP-MS)
# Assay type: biochemical, Pseudomonas putida KT2440
# Method: Enzymatic N-acetylation of AST (1). PpArsN1, the AST-selective N-acetyltransferase from Pseudomonas putida KT2440, was purified. […] The reaction solution was filtered using an Amicon Ultra centrifugal filter with a 3K cutoff membrane (MilliporeSigma), and arsenic species in the filtrate were analyzed by HPLC-ICP-MS.
smiles,measurement,setting,value
C[As](=O)(O)CCC(N)C(=O)O (centres unmarked) [bAST],conversion to L-N-Ac-AST by PpArsN1 (in words),"PpArsN1/AcCoA, HPLC-ICP-MS (FIG. 23)",nearly completely converted
C[As](=O)(O)CCC(N)C(=O)O (centres unmarked) [sAST],conversion to L-N-Ac-AST by PpArsN1,"10 μM AST, 0.2 μM PpArsN1, 0.2 mM AcCoA, 37° C., 30 min (FIG. 23)",50%
